From patent US10702506B2, “Small molecule inhibitors of pendrin ion exchange and pharmaceutical compositions” (THE REGENTS OF THE UNIVERSITY OF CALIFORNIA, priority 2016, dated 2020) come the findings set out here.

For the test, the target named is T1, pendrin (Homo sapiens, UniProt O43511).
T1 sequence (O43511 1-780): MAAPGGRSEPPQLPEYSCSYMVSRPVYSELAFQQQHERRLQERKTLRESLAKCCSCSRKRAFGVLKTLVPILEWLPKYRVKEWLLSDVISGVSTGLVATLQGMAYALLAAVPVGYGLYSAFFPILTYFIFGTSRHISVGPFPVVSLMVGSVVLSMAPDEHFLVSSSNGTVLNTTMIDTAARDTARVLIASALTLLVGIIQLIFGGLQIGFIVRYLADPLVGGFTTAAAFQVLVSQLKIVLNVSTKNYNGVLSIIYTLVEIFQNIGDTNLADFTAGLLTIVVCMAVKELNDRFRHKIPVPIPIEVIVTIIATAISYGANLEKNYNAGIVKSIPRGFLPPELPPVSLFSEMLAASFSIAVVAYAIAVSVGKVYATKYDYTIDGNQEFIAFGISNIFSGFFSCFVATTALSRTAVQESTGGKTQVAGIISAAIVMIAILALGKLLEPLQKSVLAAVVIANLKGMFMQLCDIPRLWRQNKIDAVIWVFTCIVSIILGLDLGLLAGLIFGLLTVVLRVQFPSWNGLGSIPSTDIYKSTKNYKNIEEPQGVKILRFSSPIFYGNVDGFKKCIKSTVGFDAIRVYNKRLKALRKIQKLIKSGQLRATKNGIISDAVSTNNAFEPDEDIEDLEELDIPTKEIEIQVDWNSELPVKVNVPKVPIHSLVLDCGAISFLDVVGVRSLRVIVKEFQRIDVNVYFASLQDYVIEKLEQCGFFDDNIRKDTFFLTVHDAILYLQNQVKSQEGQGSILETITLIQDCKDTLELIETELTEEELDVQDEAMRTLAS
Kind of test: BCECF assay of Cl−/HCO3− exchange in primary HBE and CFBE cell cultures. The class given is cell-based. The settings on record: 25 μM. Also on record: endogenous in cells; host or cells: primary human bronchial epithelial cultures from non-CF (HBE) and CF (CFBE) donors, with or without IL-13. The method, then:
Bronchial tissues were obtained from non-CF (without significant airway disease) and CF subjects following lung transplantation, or from lungs donated for transplantation but subsequently found to be unsuitable for that purpose. Non-CF and CF human bronchial epithelial (HBE and CFBE, respectively) cell cultures were grown at an air-liquid interface as described in detail. At 21 days post-seeding, cells typically formed a tight epithelium (RTE>1000 Ωcm^2). In some experiments, the culture medium was supplemented with 10 ng/ml recombinant human IL-13 (Peprotech, Rocky Hill, N.J.) for 7 days starting at day 21 of culture. […] Pendrin transcript levels in human primary cells were measured by Taqman quantitative PCR using the Hs00166504_m1 probe set (ThermoFisher Scientific, Grand Island, N.Y.) at the UCSF Helen Diller Cancer Center Genome Analysis Core. […]
Cytoplasmic pH (pHi) was measured to assay pendrin-mediated Cl^−/HCO3^− exchange in pendrin-expressing FRT cells and primary cell cultures using the pH-sensitive fluorescent probe BCECF. […] BCECF pH-sensitive fluorescence (490 nm excitation, 535 nm emission) was acquired at 0.5 Hz, with control experiments confirming that BCECF pH-insensitive fluorescence was not altered during exchange protocols. In some experiments pHi changes in the absence of HCO3^− were measured using buffers in which NaCl or Na gluconate replaced NaHCO3^−. […]

Turning to `Cn1nc(COc2cccc(F)c2)c2c1CCN(C(=O)Nc1ccc(Cl)cc1)C2` [PDSinh-A01], the “effect on intracellular alkalinization in response to gluconate gradient, IL-13-treated cultures” value (IL-13-treated) is recorded as “inhibited”. Besides, the “effect on pH changes in response to gluconate gradient, control cultures” value (no added IL-13, 30 min) is given as “not altered”.
